We go through one compound from ChEMBL document CHEMBL1201862, “PubChem BioAssay data set” (2004).

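Protocol summary: plate cells (96-well), add compound at 5 concentrations, incubate 48 h, interpolate endpoints linearly. Here, GI50 denotes the concentration required for 50% inhibition of growth.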 Active and inactive are the calls of the source. Rule as the data show it: active = GI50 up to about 1.1 µM and inactive = higher.

Test systems include OVCAR-3; UO-31; SN12C; NCI-H226; COLO 205; EKVX; KM12; RPMI-8226; HCT-116; SK-MEL-2; CCRF-CEM; HCT-15; SW-620; LOX IMVI; SK-OV-3; UACC-62; HT-29; IGROV-1; OVCAR-5; K562.
Experiment in all cases: growth of human tumour cells (NCI), 48 h

In the case of `CC(=O)O[C@H]1CC[C@]2(C=O)[C@H]3CC[C@]4(C)[C@@H](C5=CC(=O)OC5)CC[C@]4(O)[C@@H]3CC[C@]2(O)C1` [STROPHANTHIDIN ACETATE], the GI50 is 98.2 nM (active) with OVCAR-3; 230 nM (active) in the test with UO-31; 420 nM (active) in the test on SN12C; 681 nM (active) in the test on NCI-H226; 378 nM (active) in the test with COLO 205; 225 nM (active) in the test on EKVX. Moreover, the GI50 with KM12 is 692 nM (active); with RPMI-8226, 313 nM (active); in the test on HCT-116, 110 nM (active); with SK-MEL-2 it was 324 nM (active); in the test on CCRF-CEM, 60.5 nM (active); with HCT-15, 203 nM. For the same compound, the GI50 in the test on SW-620 is 264 nM (active); with LOX IMVI it was 222 nM (active); in the test with SK-OV-3, 222 nM (active); in the test with UACC-62, 353 nM (active); in the test on HT-29, 212 nM (active); in the test with IGROV-1, 310 nM (active). Also, the values for the GI50 in the test with OVCAR-5 and in the test on K562 were 575 nM (active) and 830 nM (active), respectively.
